From PMC11116414, “Impact of secretin receptor homo-dimerization on natural ligand binding” (Nature Communications, 2024)

What was measured:
WT SecR [1] = molecular target: T1, WT SecR (Homo sapiens, UniProt P47872); assay: KI collisional fluorescence quenching of receptor-bound probes, WT SecR; conditions: KI quencher, mean ± S.E.M., n = 3
T1 construct: expressed in transfected cells; membranes isolated from CHO-SecR cells
Description: (§1) Incubations were terminated by separating receptor-bound ligand from free ligand using centrifugation at 25,000 × g for 10 min at 4 °C. The sample pellet was washed again with ice-cold KRH medium and resuspended in KRH medium for fluorescence measurements. The samples were excited at 481 nm and the emission was collected at 521 nm, with a bandwidth of 5 nm at an integration rate of 0.5 nm/s, and fluorescence intensities were collected by constant wavelength single point analysis using SPEX Fluoromax 3 (Horiba Scientific, Piscataway, NJ) with Origin version 8.1.
(§2) Fluorescence collisional quenching studies were performed using the hydrophilic quenching reagent, potassium iodide (KI), as described previously. Fluorescence intensities of receptor-bound probes were collected by exciting samples at 481 nm using Fluoromax-3 spectrofluorometer single point measurement by Origin version 8.1. […] The effect of ionic strength was determined by measuring fluorescence intensities in potassium chloride. […] The Stern–Volmer quenching constant, KSV, was calculated from the slope of Fo/F as a function of the quencher concentration [I^−].

SecR(G264A,I268A) [2] = molecular target: T2, SecR(G264A,I268A) (Homo sapiens, UniProt P47872, G264A/I268A); assay: KI collisional fluorescence quenching of receptor-bound probes, mutant SecR; conditions: KI quencher, mean ± S.E.M., n = 3
T2 construct: expressed in transfected cells; membranes isolated from these cells
T2 sequence (P47872 23-440 G264A/I268A): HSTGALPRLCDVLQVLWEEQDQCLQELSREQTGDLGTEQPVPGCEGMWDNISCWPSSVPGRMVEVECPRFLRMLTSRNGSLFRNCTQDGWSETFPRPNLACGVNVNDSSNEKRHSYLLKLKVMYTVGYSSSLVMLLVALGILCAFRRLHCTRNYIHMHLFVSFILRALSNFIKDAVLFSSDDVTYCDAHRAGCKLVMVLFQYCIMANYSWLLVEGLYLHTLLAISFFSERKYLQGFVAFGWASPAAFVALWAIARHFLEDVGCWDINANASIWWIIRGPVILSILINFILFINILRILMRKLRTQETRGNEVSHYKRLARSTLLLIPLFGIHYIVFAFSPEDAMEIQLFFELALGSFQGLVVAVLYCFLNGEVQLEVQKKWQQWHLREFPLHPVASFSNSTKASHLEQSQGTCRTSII
Description: as §1, §2

WT SecR [3] = molecular target: T1, WT SecR; assay: Fluorescence anisotropy of receptor-bound probes, WT SecR; conditions: for Anisotropy: SecR WT, membranes, 50 nM probe, mean ± S.E.M., n = 3; for anisotropy, + GppNHp vs control, in words: WT SecR, 20 and 37 °C
Description: as §1

SecR(G264A,I268A) [4] = molecular target: T2, SecR(G264A,I268A); assay: Fluorescence anisotropy of receptor-bound probes, mutant SecR; conditions: membranes, 50 nM probe, mean ± S.E.M., n = 3
Description: as §1

[5] = +GppNHp (uncoupled state, 10 µM)
[6] = -GppNHp (active state), 50 nM probe, ex 481/em 521 nm
[7] = control, 20 °C, KRH pH 7.4, ex 481 nm
[8] = control, 37 °C, KRH pH 7.4, ex 481 nm

T1 sequence (P47872 23-440): as the sequence (P47872 23-440 G264A/I268A) above, with A242G, A246I counted along it

| SMILES | Stern-Volmer quenching constant (Ksv) (WT SecR [1]; [5]) | Stern-Volmer quenching constant (Ksv) (WT SecR [1]; [6]) | Stern-Volmer quenching constant (Ksv) (SecR(G264A,I268A) [2]; [5]) | Stern-Volmer quenching constant (Ksv) (SecR(G264A,I268A) [2]; -GppNHp (active state)) | Anisotropy (WT SecR [3]; +GppNHp (10 µM), 20 °C) | Anisotropy (WT SecR [3]; +GppNHp (10 µM), 37 °C) | Anisotropy (WT SecR [3]; [7]) | Anisotropy (WT SecR [3]; [8]) | anisotropy, + GppNHp vs control, in words (WT SecR [3]) | Anisotropy (SecR(G264A,I268A) [4]; +GppNHp (10 µM), 20 °C) | Anisotropy (SecR(G264A,I268A) [4]; +GppNHp (10 µM), 37 °C) | Anisotropy (SecR(G264A,I268A) [4]; control, 20 °C) | Anisotropy (SecR(G264A,I268A) [4]; control, 37 °C) |
| --- | --- | --- | --- | --- | --- | --- | --- | --- | --- | --- | --- | --- | --- |
| CC(C)C[C@H](NC(=O)CNC(=O)[C@H](CCC(N)=O)NC(=O)[C@H](CC(C)C)NC(=O)[C@H](CC(C)C)NC(=O)[C@H](CCCNC(=N)N)NC(=O)[C@H](CCC(N)=O)NC(=O)[C@H](CC(C)C)NC(=O)[C@H](CCCNC(=N)N)NC(=O)[C@H](C)NC(=O)CNC(=O)[C@H](CCC(=O)O)NC(=O)[C@H](CCCNC(=N)N)NC(=O)[C@H](CCCCNC(=O)c1ccc(-c2c3ccc(=N)c(S(=O)(=O)O)c-3oc3c(S(=O)(=O)O)c(N)ccc23)c(C(=O)O)c1)NC(=O)[C@H](CCCNC(=N)N)NC(=O)[C@H](CO)NC(=O)[C@H](CC(C)C)NC(=O)[C@H](CCC(=O)O)NC(=O)[C@H](CO)NC(=O)[C@@H](NC(=O)[C@H](Cc1ccccc1)NC(=O)[C@@H](NC(=O)CNC(=O)[C@H](CC(=O)O)NC(=O)[C@H](CO)NC(=O)[C@@H](N)Cc1c[nH]cn1)[C@@H](C)O)[C@@H](C)O)C(=O)N[C@H](C(N)=O)C(C)C [(Lys^13-Alexa^488)Sec] | 3.9±02 | 7.9±0.6 | 4.5±0.9 | 5.2±0.4 | 0.20 ± 0.02 | 0.12 ± 0.01 | 0.14 ± 0.01 | 0.06 ± 0.01 | higher anisotropy after treatment with GppNHp than the control state | 0.20 ± 0.01 | 0.11 ± 0.01 | 0.18 ± 0.02 | 0.11 ± 0.01 |
| CC(C)C[C@H](NC(=O)CNC(=O)[C@H](CCC(N)=O)NC(=O)[C@H](CC(C)C)NC(=O)[C@H](CCCCNC(=O)c1ccc(-c2c3ccc(=N)c(S(=O)(=O)O)c-3oc3c(S(=O)(=O)O)c(N)ccc23)c(C(=O)O)c1)NC(=O)[C@H](CCCNC(=N)N)NC(=O)[C@H](CCC(N)=O)NC(=O)[C@H](CC(C)C)NC(=O)[C@H](CCCNC(=N)N)NC(=O)[C@H](C)NC(=O)CNC(=O)[C@H](CCC(=O)O)NC(=O)[C@H](CCCNC(=N)N)NC(=O)[C@H](CC(C)C)NC(=O)[C@H](CCCNC(=N)N)NC(=O)[C@H](CO)NC(=O)[C@H](CC(C)C)NC(=O)[C@H](CCC(=O)O)NC(=O)[C@H](CO)NC(=O)[C@@H](NC(=O)[C@H](Cc1ccccc1)NC(=O)[C@@H](NC(=O)CNC(=O)[C@H](CC(=O)O)NC(=O)[C@H](CO)NC(=O)[C@@H](N)Cc1c[nH]cn1)[C@@H](C)O)[C@@H](C)O)C(=O)N[C@H](C(N)=O)C(C)C [(Lys^22-Alexa^488)Sec] | 4.5±0.2 | 8.9±1.0 | 4.3±0.2 | 6.1±0.3 | 0.20 ± 0.02 | 0.12 ± 0.01 | 0.14 ± 0.01 | 0.06 ± 0.01 | higher anisotropy after treatment with GppNHp than the control state | 0.19 ± 0.01 | 0.12 ± 0.01 | 0.18 ± 0.01 | 0.10 ± 0.01 |
